Assay results published in US20150274777A1, “KETOAMIDE IMMUNOPROTEASOME INHIBITORS” (HOFFMANN-LA ROCHE INC., priority 2012, published 2015).

Legend:
[1] = tested on: mouse CAIA and CIA arthritis models; conditions: cited from earlier work
[2] = tested on: MRL/lpr lupus-prone mice model; conditions: cited from earlier work
[3] = tested on: DSS-induced colitis model; conditions: DSS-induced colitis model in mice; cited from earlier work
β5i = target: T1, β5i (Homo sapiens, UniProt P20618+P28062); experiment: Cell-Based Proteasome Activity/Selectivity Assay (Ramos cells), substrate (ANW)2Rh110; conditions: highest concentration tested 20 μM, read-out: Ic50 ramos:ac-(anw)2-r110
T1 construct: protease activity associated with the proteasome complex in cultured cells; endogenous in cells; host or cells: Ramos cells
Method in brief: (§1)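 Ramos cells (5×10^4/well in DPBS) were treated with 4-fold compound dilutions (top 20 μM) for 30 min at 37 °C. A 2× mix of 0.025% digitonin, 20 μM of each Rh110 substrate and 0.5 M sucrose was added, then incubated 120 min at room temperature. Rh110 fluorescence was read at 500/519 nm.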

β5c = target: T2, β5c (Homo sapiens, UniProt P20618+P28074); experiment: Cell-Based Proteasome Activity/Selectivity Assay (Ramos cells), substrate (WLA)2Rh110; conditions: highest concentration tested 20 μM
T2 construct: protease activity associated with the proteasome complex in cultured cells; endogenous in cells; host or cells: Ramos cells
Method in brief: as §1

β2c/2i = experiment: Cell-Based Proteasome Activity/Selectivity Assay (Ramos cells), substrate (KQL)2Rh110; conditions: highest concentration tested 20 μM
Method in brief: as §1

β1i = target: T3, β1i (Homo sapiens, UniProt P28065+P40306); experiment: Cell-Based Proteasome Activity/Selectivity Assay (Ramos cells), substrate (PAL)2Rh110; conditions: highest concentration tested 20 μM
T3 construct: protease activity associated with the proteasome complex in cultured cells; endogenous in cells; host or cells: Ramos cells
Method in brief: as §1

β1c = target: T4, β1c (Homo sapiens, UniProt P28072+Q99436); experiment: Cell-Based Proteasome Activity/Selectivity Assay (Ramos cells), substrate (LLE)2 Rh110; conditions: highest concentration tested 20 μM
T4 construct: protease activity associated with the proteasome complex in cultured cells; endogenous in cells; host or cells: Ramos cells
Method in brief: as §1

[4] = tested on: IP10 level in PBMCs stimulated with CpG Type A; experiment: PBMC IP-10 Assay; type: cell-based; conditions: CpG Type A 2.5 μM
Method in brief: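 Human PBMCs (~2×10^5/well) preincubated 60 min at 37° C. with titrated compound (1% DMSO final), then stimulated with CpG Type A (ODN 2216) at 2.5 μM final overnight. Supernatant IP-10 quantified by AlphaLISA; viability of remaining cells by ATP luminescence.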

Row | IC50 (β5i) [µM] | IC50 (β5c) [µM] | IC50 (β2c/2i) [µM] | IC50 (β1i) [µM] | IC50 (β1c) [µM] | SMILES | disease score [1] | disease progression [2] | plasma cells numbers and levels of anti-dsDNA IgG [2] | inflammation and tissue destruction [3] | EC50 [4] [µM]
1 | – | – | – | – | – | COc1ccc(C[C@H](NC(=O)[C@H](C)NC(=O)CN2CCOCC2)C(=O)N[C@@H](Cc2ccccc2)C(=O)[C@@]2(C)CO2)cc1 [PR-957] | significantly decreased | prevented | reduced | reduced | –
2 | 1.21 | 4.11 | > 20 | > 20 | > 20 | C[C@H](NC(=O)OCc1ccccc1)C(=O)N[C@@H](Cc1c[nH]c2ccccc12)C(=O)N[C@@H](Cc1ccccc1)C(=O)C(=O)N(C)Cc1ccccc1 [Example 38, {(S)-1-[(S)-1-[(S)-1-Benzyl-2-(benzyl-methyl-carbamoyl)-2-oxo-ethylcarbamoyl]-2-(1H-indol-3-yl)-ethylcarbamoyl]-ethyl}-carbamic acid benzyl ester] | – | – | – | – | 10.1
3 | 0.146 | 0.45 | 10.6 | 0.91 | 3.55 | CCCC[C@H](NC(=O)[C@H](CC(C)C)NC(=O)[C@@H](NC(=O)[C@H](Cc1ccccc1C)NC(C)=O)C(C)(C)C)C(=O)C(=O)NCc1ccccc1 [Example 1, (S)-3-{(S)-2-[(S)-2-((S)-2-Acetylamino-3-o-tolyl-propionylamino)-3,3-dimethyl-butyrylamino]-4-methyl-pentanoylamino}-2-oxo-heptanoic acid benzylamide] | – | – | – | – | 2.05
4 | 0.029 | 1.38 | > 20 | 0.605 | > 20 | COc1ccc(C[C@H](NC(=O)[C@H](C)NS(=O)(=O)c2ccccc2)C(=O)N[C@@H](Cc2ccccc2)C(=O)C(=O)NCc2ccccc2)cc1 [Example 39, (S)-3-[(S)-2-((S)-2-Benzenesulfonylamino-propionylamino)-3-(4-methoxy-phenyl)-propionylamino]-N-benzyl-2-oxo-4-phenyl-butyramide] | – | – | – | – | 2.32
5 | 0.034 | 0.738 | > 20 | 0.244 | 13.1 | CNC(=O)C(=O)[C@H](Cc1ccccc1)NC(=O)[C@H](Cc1c[nH]c2ccccc12)NC(=O)[C@H](C)NC(=O)OCc1ccccc1 [Example 31, {(S)-1-[(S)-1-((S)-1-Benzyl-2-methylcarbamoyl-2-oxo-ethylcarbamoyl)-2-(1H-indol-3-yl)-ethylcarbamoyl]-ethyl}-carbamic acid benzyl ester] | – | – | – | – | 1.18
6 | 0.121 | 4.41 | > 20 | 2.17 | > 20 | COc1ccc(C[C@H](NC(=O)[C@H](C)NC(=O)CN2CCOCC2)C(=O)N[C@@H](Cc2ccccc2)C(=O)C(=O)NCc2ccccc2)cc1 [Example 46, (S)—N-Benzyl-3-{(S)-3-(4-methoxy-phenyl)-2-[(S)-2-(2-morpholin-4-yl-acetylamino)-propionylamino]-propionylamino}-2-oxo-4-phenyl-butyramide] | – | – | – | – | 5.78
7 | 0.018 | 0.56 | > 20 | 0.142 | 3.35 | CCCC[C@H](NC(=O)[C@H](Cc1c[nH]c2ccccc12)NC(=O)[C@H](C)NC(=O)C1=C(C)c2ccccc2C1)C(=O)C(=O)NCc1ccccc1 [Example 5, 3-Methyl-1H-indene-2-carboxylic acid {(S)-1-[(S)-1-((S)-1-benzylaminooxalyl-pentylcarbamoyl)-2-(1H-indol-3-yl)-ethylcarbamoyl]-ethyl}-amide] | – | – | – | – | 1.22
8 | 0.033 | 0.771 | > 20 | 0.504 | 11.1 | CCCC[C@H](NC(=O)[C@H](Cc1c[nH]c2ccccc12)NC(=O)[C@H](C)NC(=O)C1=C(C)c2ccccc2C1)C(=O)C(=O)N[C@H](C)c1ccccc1 [Example 8] | – | – | – | – | 1.78
9 | 0.124 | 3.3 | > 20 | 1.1 | > 20 | C[C@H](NC(=O)CN1CCOCC1)C(=O)N[C@@H](Cc1c[nH]c2ccccc12)C(=O)N[C@@H](Cc1ccccc1)C(=O)C(=O)NCc1ccccc1 [Example 22, (S)—N-Benzyl-3-{(S)-3-(1H-indol-3-yl)-2-[(S)-2-(2-morpholin-4-yl-acetylamino)-propionylamino]-propionylamino}-2-oxo-4-phenyl-butyramide] | – | – | – | – | 5.78
10 | 0.102 | 3.05 | > 20 | 0.712 | 13.2 | CCCC[C@H](NC(=O)[C@H](Cc1c[nH]c2ccccc12)NC(=O)[C@H](C)NC(=O)C1=C(C)c2ccccc2C1)C(=O)C(=O)N[C@@H](C)c1ccccc1 [Example 7] | – | – | – | – | 4.01
11 | 0.294 | 5.11 | > 20 | 4.74 | > 20 | COc1ccc(C[C@H](NC(=O)C2(NC(=O)OCc3ccccc3)CC2)C(=O)N[C@@H](Cc2ccccc2)C(=O)C(=O)NCc2ccccc2)cc1 [Example 28, {1-[(S)-1-((S)-1-Benzyl-2-benzylcarbamoyl-2-oxo-ethylcarbamoyl)-2-(4-methoxy-phenyl)-ethylcarbamoyl]-cyclopropyl}-carbamic acid benzyl ester] | – | – | – | – | 2.79
12 | 0.046 | 1.29 | > 20 | 1.14 | 14.7 | COc1ccc(C[C@H](NC(=O)[C@H](C)NS(=O)(=O)c2ccccc2C)C(=O)N[C@@H](Cc2ccccc2)C(=O)C(=O)NCc2ccccc2)cc1 [Example 40, (S)—N-Benzyl-3-{(S)-3-(4-methoxy-phenyl)-2-[(S)-2-(toluene-2-sulfonylamino)-propionylamino]-propionylamino}-2-oxo-4-phenyl-butyramide] | – | – | – | – | 1.83
13 | 0.221 | 1.36 | > 20 | 1.78 | > 20 | Cc1cc(C(=O)N[C@@H](C)C(=O)N[C@@H](Cc2ccccc2)C(=O)N[C@@H](Cc2ccccc2)C(=O)C(=O)NCc2ccccc2)n(C)n1 [Example 53, 2,5-Dimethyl-2H-pyrazole-3-carboxylic acid {(S)-1-[(S)-1-((S)-1-benzyl-2-benzylcarbamoyl-2-oxo-ethylcarbamoyl)-2-phenyl-ethylcarbamoyl]-ethyl}-amide] | – | – | – | – | 4.9
14 | 0.026 | 0.385 | > 20 | 0.697 | 18.4 | COc1ccc(C[C@H](NC(=O)[C@H](C)NC(=O)CCc2ccnn2C)C(=O)N[C@@H](Cc2ccccc2)C(=O)C(=O)NCc2ccccc2)cc1 [Example 41, (S)—N-Benzyl-3-((S)-3-(4-methoxy-phenyl)-2-{(S)-2-[3-(2-methyl-2H-pyrazol-3-yl)-propionylamino-]propionylamino}-propionylamino)-2-oxo-4-phenyl-butyramide] | – | – | – | – | 1.5
15 | 0.026 | 0.815 | > 20 | 0.034 | > 20 | CCCC[C@H](NC(=O)[C@H](Cc1c[nH]c2ccccc12)NC(=O)[C@H](C)NC(=O)OCc1ccccc1)C(=O)C(=O)NCc1ccccc1 [Example 9, {(S)-1-[(S)-1-((S)-1-Benzylaminooxalyl-pentylcarbamoyl)-2-(1H-indol-3-yl)-ethylcarbamoyl]-ethyl}-carbamic acid benzyl ester] | – | – | – | – | 5.29
16 | 0.005 | 0.272 | 5.71 | 0.441 | 7.05 | CC(C)C[C@H](NC(=O)[C@H](C)NC(=O)C1Cc2ccccc2C1)C(=O)N[C@@H](Cc1ccccc1)C(=O)C(=O)NCc1ccccc1 [Example 24, Indan-2-carboxylic acid {(S)-1-[(S)-1-((S)-1-benzyl-2-benzylcarbamoyl-2-oxo-ethylcarbamoyl)-3-methyl-butylcarbamoyl]-ethyl}-amide] | – | – | – | – | 0.433
17 | 0.089 | 1.36 | > 20 | > 20 | > 20 | COc1ccc(C[C@H](NC(=O)[C@H](C)NC(=O)C2Cc3ccccc3C2)C(=O)NC2(C(=O)C(=O)NCc3ccccc3)Cc3ccccc3C2)cc1 [Example 59, Indan-2-carboxylic acid {(S)-1-[(S)-1-(2-benzylaminooxalyl-indan-2-ylcarbamoyl)-2-(4-methoxy-phenyl)-ethylcarbamoyl]-ethyl}-amide] | – | – | – | – | 11.7
